In the kinase profiling compilation of Christmann-Franck et al. (2016):
“And” between values parts separate entries of the source, which are not always exact repeats. Equal entries are not always repeated.

What was measured:
Test in all cases: Caliper, Mobility shift assay off-chip
[1] = system: KIT (human), P10721 [T670I]
[2] = molecular target: ABL2 (human) (UniProt P42684)
[3] = molecular target: PRKD1 (human) (UniProt Q15139)
[4] = molecular target: PRKCZ (human) (UniProt Q05513)
[5] = molecular target: BLK (human) (UniProt P51451)
[6] = molecular target: YES1 (human) (UniProt P07947)
[7] = molecular target: MARK1 (human) (UniProt Q9P0L2)
[8] = molecular target: CAMK2A (human) (UniProt Q9UQM7)
[9] = molecular target: ABL1 (human) (UniProt P00519)
[10] = molecular target: SGK2 (human) (UniProt Q9HBY8)
[11] = molecular target: PRKCA (human) (UniProt P17252)
[12] = molecular target: CDK2 (human) (UniProt P24941)
[13] = molecular target: PRKG1 (human) (UniProt Q13976)
[14] = molecular target: CAMK2B (human) (UniProt Q13554)
[15] = molecular target: RPS6KA2 KD1 KD2 (human) (UniProt Q15349)
[16] = molecular target: BRSK1 (human) (UniProt Q8TDC3)
Chain of BRSK1 (human) (Q8TDC3 whole entry, looked up): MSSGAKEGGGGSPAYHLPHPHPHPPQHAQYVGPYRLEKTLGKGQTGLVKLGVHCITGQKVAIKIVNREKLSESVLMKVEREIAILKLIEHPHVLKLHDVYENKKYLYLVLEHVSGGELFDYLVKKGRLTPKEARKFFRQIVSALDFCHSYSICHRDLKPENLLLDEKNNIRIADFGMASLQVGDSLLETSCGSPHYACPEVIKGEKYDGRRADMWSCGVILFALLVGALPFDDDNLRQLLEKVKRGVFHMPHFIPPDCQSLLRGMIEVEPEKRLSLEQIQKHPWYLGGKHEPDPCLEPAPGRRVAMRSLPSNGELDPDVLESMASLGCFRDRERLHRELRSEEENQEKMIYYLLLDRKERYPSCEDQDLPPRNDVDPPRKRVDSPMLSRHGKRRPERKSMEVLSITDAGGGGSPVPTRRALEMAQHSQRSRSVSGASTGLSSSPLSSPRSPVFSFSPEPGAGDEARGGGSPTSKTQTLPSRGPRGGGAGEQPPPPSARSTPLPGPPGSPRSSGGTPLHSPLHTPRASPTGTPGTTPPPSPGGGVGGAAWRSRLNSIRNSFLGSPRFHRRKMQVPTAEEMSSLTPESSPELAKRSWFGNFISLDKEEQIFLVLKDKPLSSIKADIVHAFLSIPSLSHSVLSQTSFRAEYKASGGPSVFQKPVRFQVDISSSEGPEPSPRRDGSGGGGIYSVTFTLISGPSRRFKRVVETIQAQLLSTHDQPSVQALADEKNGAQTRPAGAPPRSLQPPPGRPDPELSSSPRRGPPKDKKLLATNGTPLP

[17] = molecular target: PRKD2 (human) (UniProt Q9BZL6)
[18] = molecular target: PHKG1 (human) (UniProt Q16816)
Chain of PHKG1 (human) (Q16816 whole entry, looked up): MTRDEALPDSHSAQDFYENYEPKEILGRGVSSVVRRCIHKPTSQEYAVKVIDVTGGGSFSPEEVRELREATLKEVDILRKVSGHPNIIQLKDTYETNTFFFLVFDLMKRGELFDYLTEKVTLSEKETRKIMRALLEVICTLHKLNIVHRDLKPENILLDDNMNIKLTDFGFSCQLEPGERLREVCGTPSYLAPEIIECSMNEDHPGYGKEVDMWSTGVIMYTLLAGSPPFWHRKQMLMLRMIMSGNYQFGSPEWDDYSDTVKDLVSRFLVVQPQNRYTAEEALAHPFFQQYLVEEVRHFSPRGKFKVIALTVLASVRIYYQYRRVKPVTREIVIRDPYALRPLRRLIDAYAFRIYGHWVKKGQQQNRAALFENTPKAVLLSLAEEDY

[19] = molecular target: ROCK2 (human) (UniProt O75116)
[20] = system: ABL1 (human), P00519 [T315I]
[21] = molecular target: FGFR4 (human) (UniProt P22455)
Chain of FGFR4 (human) (P22455 whole entry, looked up): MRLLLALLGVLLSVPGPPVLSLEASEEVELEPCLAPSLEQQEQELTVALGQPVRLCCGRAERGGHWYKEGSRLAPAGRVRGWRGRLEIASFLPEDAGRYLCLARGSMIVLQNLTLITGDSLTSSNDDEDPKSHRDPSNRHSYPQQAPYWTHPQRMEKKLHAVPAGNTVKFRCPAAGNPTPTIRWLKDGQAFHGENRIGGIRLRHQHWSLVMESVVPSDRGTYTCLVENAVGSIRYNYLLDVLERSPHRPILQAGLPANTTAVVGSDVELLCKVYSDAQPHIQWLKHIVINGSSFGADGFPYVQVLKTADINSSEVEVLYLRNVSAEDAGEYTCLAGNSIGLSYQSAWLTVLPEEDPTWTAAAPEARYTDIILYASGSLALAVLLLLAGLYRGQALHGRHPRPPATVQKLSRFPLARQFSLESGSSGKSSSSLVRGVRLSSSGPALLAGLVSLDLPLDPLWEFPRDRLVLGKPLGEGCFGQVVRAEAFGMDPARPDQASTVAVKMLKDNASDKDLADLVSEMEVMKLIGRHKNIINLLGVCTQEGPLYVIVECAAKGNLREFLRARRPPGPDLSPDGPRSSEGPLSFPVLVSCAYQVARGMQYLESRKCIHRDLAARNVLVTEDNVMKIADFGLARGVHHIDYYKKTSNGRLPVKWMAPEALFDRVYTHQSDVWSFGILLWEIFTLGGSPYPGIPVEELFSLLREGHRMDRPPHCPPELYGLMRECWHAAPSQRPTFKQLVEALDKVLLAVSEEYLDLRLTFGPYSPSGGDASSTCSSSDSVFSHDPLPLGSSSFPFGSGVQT

[22] = molecular target: PASK (human) (UniProt Q96RG2)
Chain of PASK (human) (Q96RG2 whole entry, looked up): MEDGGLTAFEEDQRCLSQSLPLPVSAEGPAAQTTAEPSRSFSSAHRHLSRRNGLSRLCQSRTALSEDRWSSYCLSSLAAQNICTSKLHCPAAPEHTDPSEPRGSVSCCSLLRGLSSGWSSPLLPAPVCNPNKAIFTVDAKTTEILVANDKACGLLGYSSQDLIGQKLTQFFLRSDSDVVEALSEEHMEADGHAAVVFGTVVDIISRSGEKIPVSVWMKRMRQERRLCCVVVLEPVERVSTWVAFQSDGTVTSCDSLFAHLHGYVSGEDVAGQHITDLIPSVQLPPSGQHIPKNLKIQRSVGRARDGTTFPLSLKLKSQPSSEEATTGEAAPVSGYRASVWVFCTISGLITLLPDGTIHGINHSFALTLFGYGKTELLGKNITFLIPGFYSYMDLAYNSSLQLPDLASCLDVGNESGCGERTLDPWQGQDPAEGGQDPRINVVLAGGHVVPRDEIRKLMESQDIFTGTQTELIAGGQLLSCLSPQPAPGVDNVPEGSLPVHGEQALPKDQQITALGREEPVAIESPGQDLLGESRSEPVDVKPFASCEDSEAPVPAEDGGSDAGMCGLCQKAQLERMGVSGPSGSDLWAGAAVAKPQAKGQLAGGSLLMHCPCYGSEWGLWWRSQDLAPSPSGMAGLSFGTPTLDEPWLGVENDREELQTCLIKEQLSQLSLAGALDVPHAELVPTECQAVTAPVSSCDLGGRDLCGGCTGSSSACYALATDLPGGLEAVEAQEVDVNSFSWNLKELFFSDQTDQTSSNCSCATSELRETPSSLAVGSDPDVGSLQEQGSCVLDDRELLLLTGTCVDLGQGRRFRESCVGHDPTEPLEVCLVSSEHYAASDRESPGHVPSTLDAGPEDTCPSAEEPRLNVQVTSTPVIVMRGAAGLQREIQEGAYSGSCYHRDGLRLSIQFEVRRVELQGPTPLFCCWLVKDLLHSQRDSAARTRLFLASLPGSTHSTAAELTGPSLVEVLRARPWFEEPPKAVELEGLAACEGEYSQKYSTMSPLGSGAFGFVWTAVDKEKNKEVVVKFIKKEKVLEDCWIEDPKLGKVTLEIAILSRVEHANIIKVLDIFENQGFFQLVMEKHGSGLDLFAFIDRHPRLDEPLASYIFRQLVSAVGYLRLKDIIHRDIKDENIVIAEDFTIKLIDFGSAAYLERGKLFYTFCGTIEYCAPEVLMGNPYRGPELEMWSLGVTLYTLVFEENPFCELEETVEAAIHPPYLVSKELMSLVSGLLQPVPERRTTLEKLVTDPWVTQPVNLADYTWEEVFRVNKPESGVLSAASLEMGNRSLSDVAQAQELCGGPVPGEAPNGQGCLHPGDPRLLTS

[23] = molecular target: TSSK1B (human) (UniProt Q9BXA7)
Chain of TSSK1B (human) (Q9BXA7 whole entry, looked up): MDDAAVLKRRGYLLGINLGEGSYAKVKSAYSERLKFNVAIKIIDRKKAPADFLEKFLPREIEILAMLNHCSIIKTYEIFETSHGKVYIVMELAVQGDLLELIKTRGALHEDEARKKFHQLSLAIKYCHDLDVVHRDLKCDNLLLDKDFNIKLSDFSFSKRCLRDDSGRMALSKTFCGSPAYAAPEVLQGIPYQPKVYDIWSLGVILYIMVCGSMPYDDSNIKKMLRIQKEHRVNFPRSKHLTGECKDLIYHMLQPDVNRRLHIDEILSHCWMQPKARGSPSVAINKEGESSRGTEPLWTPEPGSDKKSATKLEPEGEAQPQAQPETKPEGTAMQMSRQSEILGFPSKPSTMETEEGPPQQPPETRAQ

[24] = molecular target: ROCK1 (human) (UniProt Q13464)
[25] = molecular target: IKBKB (human) (UniProt O14920)
[26] = molecular target: NEK2 (human) (UniProt P51955)
Chain of NEK2 (human) (P51955 whole entry, looked up): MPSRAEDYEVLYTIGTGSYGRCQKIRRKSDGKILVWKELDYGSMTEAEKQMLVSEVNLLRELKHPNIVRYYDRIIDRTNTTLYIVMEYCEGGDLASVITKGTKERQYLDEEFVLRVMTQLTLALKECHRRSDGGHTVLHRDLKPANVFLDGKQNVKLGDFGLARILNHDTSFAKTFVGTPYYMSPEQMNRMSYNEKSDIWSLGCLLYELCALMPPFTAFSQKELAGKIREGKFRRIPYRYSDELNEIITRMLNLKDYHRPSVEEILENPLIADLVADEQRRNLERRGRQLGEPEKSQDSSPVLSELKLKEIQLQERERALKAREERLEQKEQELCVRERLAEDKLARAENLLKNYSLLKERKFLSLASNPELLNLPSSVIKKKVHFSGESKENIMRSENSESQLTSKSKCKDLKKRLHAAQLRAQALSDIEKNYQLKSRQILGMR

[27] = molecular target: AURKC (human) (UniProt Q9UQB9)
[28] = molecular target: CSNK1D (human) (UniProt P48730)
[29] = molecular target: RET (human) (UniProt P07949)
[30] = molecular target: MAP4K4 (human) (UniProt O95819)
[31] = system: EGFR (human), P00533 [T790M/L858R]
[32] = molecular target: MAPK14 (human) (UniProt Q16539)
[33] = molecular target: PRKCE (human) (UniProt Q02156)
[34] = molecular target: PIM3 (human) (UniProt Q86V86)

Chain of PRKD1 (human) (Q15139 whole entry, looked up): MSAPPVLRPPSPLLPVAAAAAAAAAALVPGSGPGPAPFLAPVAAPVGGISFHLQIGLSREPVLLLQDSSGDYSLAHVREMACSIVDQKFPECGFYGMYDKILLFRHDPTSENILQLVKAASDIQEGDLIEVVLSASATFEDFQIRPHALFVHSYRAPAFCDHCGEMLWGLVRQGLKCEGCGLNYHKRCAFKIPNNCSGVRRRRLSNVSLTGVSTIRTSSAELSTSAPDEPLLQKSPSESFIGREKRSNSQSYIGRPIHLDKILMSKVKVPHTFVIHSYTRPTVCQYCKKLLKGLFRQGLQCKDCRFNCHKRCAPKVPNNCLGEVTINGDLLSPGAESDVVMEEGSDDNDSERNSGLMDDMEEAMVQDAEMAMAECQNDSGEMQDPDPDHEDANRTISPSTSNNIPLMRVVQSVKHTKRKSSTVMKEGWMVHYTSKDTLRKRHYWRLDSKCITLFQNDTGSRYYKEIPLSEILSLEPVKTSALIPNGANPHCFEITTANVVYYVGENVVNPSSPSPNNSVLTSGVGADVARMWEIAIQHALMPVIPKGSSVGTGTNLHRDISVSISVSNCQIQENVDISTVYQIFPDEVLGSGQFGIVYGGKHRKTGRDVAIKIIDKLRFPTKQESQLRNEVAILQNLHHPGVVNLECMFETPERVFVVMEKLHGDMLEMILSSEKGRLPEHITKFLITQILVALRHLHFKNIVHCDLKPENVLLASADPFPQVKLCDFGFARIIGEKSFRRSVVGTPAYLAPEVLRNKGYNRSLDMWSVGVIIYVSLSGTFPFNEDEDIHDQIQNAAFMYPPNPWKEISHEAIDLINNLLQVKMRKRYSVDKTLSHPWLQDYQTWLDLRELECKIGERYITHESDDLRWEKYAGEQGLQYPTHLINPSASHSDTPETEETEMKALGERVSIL

Cn1cc(-c2cnc3ccc4ccc(CS(=O)(=O)NC5CCCCC5)cc4c(=O)c3c2)cn1
inhibition ([1]; compound 0.01 µM): 1.3% | inhibition ([1]; compound 0.1 µM): -4.9% | inhibition ([2]; compound 0.01 µM): -2.4% | inhibition ([2]; compound 0.1 µM): -4.3% | inhibition ([3]; compound 0.01 µM): -2.4% | inhibition ([3]; compound 0.1 µM): 11.3% | inhibition ([4]; compound 0.01 µM): 1.8% | inhibition ([4]; compound 0.1 µM): 3.6% | inhibition ([5]; compound 0.01 µM): 0.8% | inhibition ([5]; compound 0.1 µM): 15.8% | inhibition ([6]; compound 0.01 µM): -1.4% | inhibition ([6]; compound 0.1 µM): -1.7% | inhibition ([7]; compound 0.01 µM): 0.6% | inhibition ([7]; compound 0.1 µM): 5.5% | inhibition ([8]; compound 0.01 µM): -12.3% | inhibition ([8]; compound 0.1 µM): -3.8% | inhibition ([9]; compound 0.01 µM): 3.8% | inhibition ([9]; compound 0.1 µM): 3.4% | inhibition ([10]; compound 0.01 µM): -1.3% | inhibition ([10]; compound 0.1 µM): -0.1% | inhibition ([11]; compound 0.01 µM): -5.5% | inhibition ([11]; compound 0.1 µM): 5.2% | inhibition ([12]; compound 0.01 µM): -2.1% | inhibition ([12]; compound 0.1 µM): 11.7% | inhibition ([13]; compound 0.01 µM): 3.2% and -1.8% | inhibition ([13]; compound 0.1 µM): 9.2% and -4.9% | inhibition ([14]; compound 0.01 µM): 4.4% | inhibition ([14]; compound 0.1 µM): -5.2% | inhibition ([15]; compound 0.01 µM): 6.7% | inhibition ([15]; compound 0.1 µM): 10.4% | inhibition ([16]; compound 0.01 µM): -2.1% | inhibition ([16]; compound 0.1 µM): -1.6% | inhibition ([17]; compound 0.01 µM): 1.6% | inhibition ([17]; compound 0.1 µM): -3.6% | inhibition ([18]; compound 0.01 µM): 6.4% | inhibition ([18]; compound 0.1 µM): 14.9% | inhibition ([19]; compound 0.01 µM): 6.2% | inhibition ([19]; compound 0.1 µM): 21.2% | inhibition ([20]; compound 0.01 µM): 0.6% | inhibition ([20]; compound 0.1 µM): 0.3% | inhibition ([21]; compound 0.01 µM): -3% | inhibition ([21]; compound 0.1 µM): 9.7% | inhibition ([22]; compound 0.01 µM): 1.5% | inhibition ([22]; compound 0.1 µM): 18.4% | inhibition ([23]; compound 0.01 µM): -3.1% | inhibition ([23]; compound 0.1 µM): 1.9% | inhibition ([24]; compound 0.01 µM): 3.1% | inhibition ([24]; compound 0.1 µM): 4% | inhibition ([25]; compound 0.01 µM): 3.8% | inhibition ([25]; compound 0.1 µM): -0.4% | inhibition ([26]; compound 0.01 µM): 0.9% | inhibition ([26]; compound 0.1 µM): -2.6% | inhibition ([27]; compound 0.01 µM): -1.6% | inhibition ([27]; compound 0.1 µM): 15.4% | inhibition ([28]; compound 0.01 µM): -3.5% | inhibition ([28]; compound 0.1 µM): 8.9% | inhibition ([29]; compound 0.01 µM): 10.4% | inhibition ([29]; compound 0.1 µM): 12.1% | inhibition ([30]; compound 0.01 µM): -2.1% | inhibition ([30]; compound 0.1 µM): 9.2% | inhibition ([31]; compound 0.01 µM): 1.8% | inhibition ([31]; compound 0.1 µM): -0.4% | inhibition ([32]; compound 0.01 µM): -1.7% | inhibition ([32]; compound 0.1 µM): -2.6% | inhibition ([33]; compound 0.01 µM): -0.5% | inhibition ([33]; compound 0.1 µM): 3.8% | inhibition ([34]; compound 0.01 µM): 7% | inhibition ([34]; compound 0.1 µM): 4.6%

O=C(CCc1ccc2ccc3ncc(C4CCNCC4)cc3c(=O)c2c1)NCc1ccccn1
inhibition ([1]; compound 0.1 µM): -3.3% | inhibition ([1]; compound 1.0 µM): -4.9% | inhibition ([2]; compound 0.1 µM): 2.6% | inhibition ([2]; compound 1.0 µM): -3.4% | inhibition ([3]; compound 0.1 µM): 7% | inhibition ([3]; compound 1.0 µM): 11% | inhibition ([4]; compound 0.1 µM): 0.7% | inhibition ([4]; compound 1.0 µM): 1.2% | inhibition ([5]; compound 0.1 µM): -0.5% | inhibition ([5]; compound 1.0 µM): 16.6% | inhibition ([6]; compound 0.1 µM): -0.7% | inhibition ([6]; compound 1.0 µM): -5.3% | inhibition ([7]; compound 0.1 µM): -5.4% | inhibition ([7]; compound 1.0 µM): -1.3% | inhibition ([8]; compound 0.1 µM): -8.9% | inhibition ([8]; compound 1.0 µM): -3.1% | inhibition ([9]; compound 0.1 µM): -1% | inhibition ([9]; compound 1.0 µM): 1.6% | inhibition ([10]; compound 0.1 µM): -1.4% | inhibition ([10]; compound 1.0 µM): -7.4% | inhibition ([11]; compound 0.1 µM): -9.4% | inhibition ([11]; compound 1.0 µM): 15.8% | inhibition ([12]; compound 0.1 µM): -10% | inhibition ([12]; compound 1.0 µM): -6.6% | inhibition ([13]; compound 0.1 µM): -5% and 4.5% | inhibition ([13]; compound 1.0 µM): -1.6% and 0.1% | inhibition ([14]; compound 0.1 µM): -1.6% | inhibition ([14]; compound 1.0 µM): 0.8% | inhibition ([15]; compound 0.1 µM): -4.2% | inhibition ([15]; compound 1.0 µM): -2.5% | inhibition ([16]; compound 0.1 µM): -1.6% | inhibition ([16]; compound 1.0 µM): 1.6% | inhibition ([17]; compound 0.1 µM): 7.5% | inhibition ([17]; compound 1.0 µM): 0% | inhibition ([18]; compound 0.1 µM): 7.9% | inhibition ([18]; compound 1.0 µM): 1.2% | inhibition ([19]; compound 0.1 µM): -2.6% | inhibition ([19]; compound 1.0 µM): 4.2% | inhibition ([20]; compound 0.1 µM): 2.7% | inhibition ([20]; compound 1.0 µM): 1.3% | inhibition ([21]; compound 0.1 µM): -3% | inhibition ([21]; compound 1.0 µM): -3.3% | inhibition ([22]; compound 0.1 µM): 6.7% | inhibition ([22]; compound 1.0 µM): 3.2% | inhibition ([23]; compound 0.1 µM): 5.4% | inhibition ([23]; compound 1.0 µM): -1.6% | inhibition ([24]; compound 0.1 µM): 4.2% | inhibition ([24]; compound 1.0 µM): 8.2% | inhibition ([25]; compound 0.1 µM): 1.2% | inhibition ([25]; compound 1.0 µM): -3.1% | inhibition ([26]; compound 0.1 µM): 6.6% | inhibition ([26]; compound 1.0 µM): 2.7% | inhibition ([27]; compound 0.1 µM): 7.5% | inhibition ([27]; compound 1.0 µM): 18.6% | inhibition ([28]; compound 0.1 µM): -7.1% | inhibition ([28]; compound 1.0 µM): -2.9% | inhibition ([29]; compound 0.1 µM): 1.9% | inhibition ([29]; compound 1.0 µM): 2.8% | inhibition ([30]; compound 0.1 µM): 5% | inhibition ([30]; compound 1.0 µM): -0.2% | inhibition ([31]; compound 0.1 µM): -0.8% | inhibition ([31]; compound 1.0 µM): -3.6% | inhibition ([32]; compound 0.1 µM): -10.6% | inhibition ([32]; compound 1.0 µM): 5.1% | inhibition ([33]; compound 0.1 µM): 9.3% | inhibition ([33]; compound 1.0 µM): -0.4% | inhibition ([34]; compound 0.1 µM): -3.4% | inhibition ([34]; compound 1.0 µM): 0.3%

CN(c1ccc2ccc3ncc(-c4cnn(C)c4)cc3c(=O)c2c1)S(=O)(=O)NCc1ccccn1
inhibition ([1]; compound 0.1 µM): 0.2% | inhibition ([1]; compound 1.0 µM): 21.4% | inhibition ([2]; compound 0.1 µM): -2.4% | inhibition ([2]; compound 1.0 µM): 18% | inhibition ([3]; compound 0.1 µM): -0.4% | inhibition ([3]; compound 1.0 µM): 1.9% | inhibition ([4]; compound 0.1 µM): 1.7% | inhibition ([4]; compound 1.0 µM): 3.7% | inhibition ([5]; compound 0.1 µM): -30.4% | inhibition ([5]; compound 1.0 µM): 29.2% | inhibition ([6]; compound 0.1 µM): -7.2% | inhibition ([6]; compound 1.0 µM): 29.9% | inhibition ([7]; compound 0.1 µM): 6.6% | inhibition ([7]; compound 1.0 µM): 16.4% | inhibition ([8]; compound 1.0 µM): 4.4% | inhibition ([9]; compound 0.1 µM): 8.2% | inhibition ([9]; compound 1.0 µM): 36.3% | inhibition ([10]; compound 0.1 µM): 1.8% | inhibition ([10]; compound 1.0 µM): 3.7% | inhibition ([11]; compound 0.1 µM): 0.1% | inhibition ([11]; compound 1.0 µM): -10.6% | inhibition ([12]; compound 0.1 µM): 3.1% | inhibition ([12]; compound 1.0 µM): 4.8% | inhibition ([13]; compound 0.1 µM): 8.1% and 4.1% | inhibition ([13]; compound 1.0 µM): 11.8% and 4.9% | inhibition ([14]; compound 0.1 µM): 5.9% | inhibition ([14]; compound 1.0 µM): 12.1% | inhibition ([15]; compound 0.1 µM): -5.9% | inhibition ([15]; compound 1.0 µM): 9.6% | inhibition ([16]; compound 0.1 µM): 3.3% | inhibition ([16]; compound 1.0 µM): 0.5% | inhibition ([17]; compound 0.1 µM): 5.7% | inhibition ([17]; compound 1.0 µM): -9.6% | inhibition ([18]; compound 0.1 µM): -1.3% | inhibition ([18]; compound 1.0 µM): 17.4% | inhibition ([19]; compound 0.1 µM): 21.3% | inhibition ([19]; compound 1.0 µM): 20.8% | inhibition ([20]; compound 0.1 µM): 3.3% | inhibition ([20]; compound 1.0 µM): 41.1% | inhibition ([21]; compound 0.1 µM): 8.9% | inhibition ([21]; compound 1.0 µM): 22.4% | inhibition ([22]; compound 0.1 µM): -10.1% | inhibition ([22]; compound 1.0 µM): 5.9% | inhibition ([23]; compound 0.1 µM): -4.8% | inhibition ([23]; compound 1.0 µM): 8.1% | inhibition ([24]; compound 0.1 µM): 14.4% | inhibition ([24]; compound 1.0 µM): 1.7% | inhibition ([25]; compound 0.1 µM): 10% | inhibition ([25]; compound 1.0 µM): 18.6% | inhibition ([26]; compound 0.1 µM): -6% | inhibition ([26]; compound 1.0 µM): -4.9% | inhibition ([27]; compound 0.1 µM): 31.7% | inhibition ([27]; compound 1.0 µM): 75.8% | inhibition ([28]; compound 0.1 µM): 3.5% | inhibition ([28]; compound 1.0 µM): 8.9% | inhibition ([29]; compound 0.1 µM): 7.4% | inhibition ([29]; compound 1.0 µM): 44.1% | inhibition ([30]; compound 0.1 µM): 18.6% | inhibition ([30]; compound 1.0 µM): 56.3% | inhibition ([31]; compound 0.1 µM): 6.2% | inhibition ([31]; compound 1.0 µM): 2.9% | inhibition ([32]; compound 0.1 µM): -4.5% | inhibition ([32]; compound 1.0 µM): 1.9% | inhibition ([33]; compound 0.1 µM): 8.8% | inhibition ([33]; compound 1.0 µM): 3.9% | inhibition ([34]; compound 0.1 µM): 4% | inhibition ([34]; compound 1.0 µM): 0.2%
